Laboratory results reported in US20250230193A1, “CYCLIC COMPOUND HAVING SELECTIVE KRAS INHIBITORY EFFECT ON HRAS AND NRAS” (CHUGAI SEIYAKU KABUSHIKI KAISHA, priority 2022, published 2025).
Where a SMILES comes first, the peptide text is derived from it. Bridges are numbered along the chain shown (N, C = ends). [ ]: non-standard residue; d: D form. The star is where a group is joined. hPhe(3-Cl-4-CF3) = N[C@@H](CCc1ccc(C(F)(F)F)c(Cl)c1)C(=O)O; NPrPhe(4-CF3) = CCCN[C@@H](Cc1ccc(C(F)(F)F)cc1)C(=O)O; NEtPhe(4-Me) = CCN[C@@H](Cc1ccc(C)cc1)C(=O)O; NMeGly(cPent) = CN[C@H](C(=O)O)C1CCCC1; Pro(4,4-F2) = O=C(O)[C@@H]1CC(F)(F)CN1; NMeD = CN[C@@H](CC(=O)O)C(=O)O; NMeL = CN[C@@H](CC(C)C)C(=O)O; Ac6c = NC1(C(=O)O)CCCCC1; Morpholide = C1CN(*)CCO1; NMeA = CN[C@@H](C)C(=O)O; Ac5c = NC1(C(=O)O)CCCC1; Aze = O=C(O)[C@@H]1CCN1; Sar = CNCC(=O)O

How the values were obtained:
[1] = molecular target: GDP-bound NRAS wild-type protein (Homo sapiens, UniProt P01111); assay: Binding to NRAS by surface plasmon resonance (SPR), Single Cycle Kinetics; settings: SPR; for NRAS/KRAS (ratio of KD value with respect to NRAS to KD value with respect to KRAS): GDP-bound NRAS wild-type vs GDP-bound KRAS wild-type
Chain of GDP-bound NRAS wild-type protein (P01111 whole entry): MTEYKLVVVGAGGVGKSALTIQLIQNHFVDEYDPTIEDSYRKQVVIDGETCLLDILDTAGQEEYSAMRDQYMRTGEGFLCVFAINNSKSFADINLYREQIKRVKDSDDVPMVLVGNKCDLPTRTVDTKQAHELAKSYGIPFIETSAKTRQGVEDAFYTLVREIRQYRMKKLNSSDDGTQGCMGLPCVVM

[2] = molecular target: GDP-bound HRAS wild-type protein (Homo sapiens, UniProt P01112); assay: Binding to HRAS by surface plasmon resonance (SPR), Single Cycle Kinetics; settings: SPR; for HRAS/KRAS (ratio of KD value with respect to HRAS to KD value with respect to KRAS): GDP-bound HRAS wild-type vs GDP-bound KRAS wild-type
Chain of GDP-bound HRAS wild-type protein (P01112 whole entry): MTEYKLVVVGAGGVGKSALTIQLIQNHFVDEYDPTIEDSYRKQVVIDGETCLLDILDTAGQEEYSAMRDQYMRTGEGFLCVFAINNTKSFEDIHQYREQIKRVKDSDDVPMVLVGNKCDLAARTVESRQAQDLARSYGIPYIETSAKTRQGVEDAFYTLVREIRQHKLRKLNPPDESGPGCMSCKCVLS

SMILES | NRAS/KRAS (ratio of KD for GDP-bound NRAS wild-type to KD for KRAS) [1] | HRAS/KRAS (ratio of KD for GDP-bound HRAS wild-type to KD for KRAS) [2] | NRAS/KRAS (ratio of KD value with respect to NRAS to KD value with respect to KRAS) [1] | HRAS/KRAS (ratio of KD value with respect to HRAS to KD value with respect to KRAS) [2] | other results
CCCN1C(=O)[C@@H]2CCN2C(=O)[C@H](C)N(C)C(=O)[C@H]([C@@H](C)CC)NC(=O)[C@H](CC(C)C)N(C)C(=O)C[C@@H](C(=O)N2CCOCC2)N(C)C(=O)[C@H](C2CCCC2)N(C)C(=O)C2(CCCCC2)NC(=O)[C@@H]2CCCN2C(=O)[C@H](CCc2ccc(C(F)(F)F)c(Cl)c2)NC(=O)CN(C)C(=O)[C@@H]1Cc1ccc(C(F)(F)F)cc1 [PP0226] ([NMeL]I[NMeA][Aze][NPrPhe(4-CF3)][Sar][hPhe(3-Cl-4-CF3)]P[Ac6c][NMeGly(cPent)][NMeD]-Morpholide; lactam N-11) | C (A compound having a KD ratio of 0.1 or more and less than 3 is denoted as C) | B (a compound having 3 or more and less than 10 is denoted as B) | – | – | –
CC[C@H](C)[C@@H]1NC(=O)[C@H](CC(C)C)N(C)C(=O)C[C@@H](C(=O)N2CCOCC2)N(C)C(=O)[C@H](C2CCCC2)N(C)C(=O)C2(COC2)NC(=O)[C@@H]2CCCN2C(=O)[C@H](CCc2cc(F)c(C(F)(F)F)c(F)c2)NC(=O)CN(C)C(=O)[C@H](Cc2ccc(C(F)(F)F)cc2)N2CCCC[C@@H](C2=O)N(C)C(=O)CN(C)C1=O [PP0563] | – | – | – | – | NRAS/KRAS (ratio of KD value with respect to GDP-bound NRAS wild-type protein to KD value with respect to KRAS) [1]: B (a compound having 3 or more and less than 10 is denoted as B); HRAS/KRAS (ratio of KD value with respect to GDP-bound HRAS wild-type protein to KD value with respect to KRAS) [2]: B (a compound having 3 or more and less than 10 is denoted as B)
CCC[C@H]1C(=O)N[C@@H]([C@@H](C)CC)C(=O)N2CCC[C@H]2C(=O)N(C)[C@H]2C/C=C\CCN(C2=O)[C@@H](CC2CCC(F)(F)CC2)C(=O)N(C)CC(=O)N[C@@H](CCc2ccc(C(F)(F)F)c(OC)c2)C(=O)N2C[C@H](OCC)C[C@H]2C(=O)N(C)C2(CCC2)C(=O)N(C)[C@@H](C(CC)CC)C(=O)N(C)[C@H](C(=O)N(C)C)CC(=O)N1C [PP2353] | – | – | A (a compound having 10 or more and less than 20 is denoted as A) | A (a compound having 10 or more and less than 20 is denoted as A) | –
CC[C@H](C)[C@@H]1NC(=O)[C@H](CC(C)C)N(C)C(=O)C[C@@H](C(=O)N2CCOCC2)NC(=O)[C@H](C2CCCC2)N(C)C(=O)C2(CCCC2)NC(=O)[C@@H]2CCCN2C(=O)[C@H](CCc2cc(F)c(C(F)(F)F)c(F)c2)NC(=O)CN(C)C(=O)[C@H](Cc2ccc(C(F)(F)F)cc2)N2CCCCC[C@@H](C2=O)N(C)C(=O)CN(C)C1=O [PP0479] | – | – | – | – | NRAS/KRAS (ratio of KD value with respect to GDP-bound NRAS wild-type protein to KD value with respect to KRAS) [1]: B (a compound having 3 or more and less than 10 is denoted as B); HRAS/KRAS (ratio of KD value with respect to GDP-bound HRAS wild-type protein to KD value with respect to KRAS) [2]: B (a compound having 3 or more and less than 10 is denoted as B)
CCO[C@@H]1C[C@H]2C(=O)NC3(CC(C)(C)C3)C(=O)N(C)[C@@H](C(CC)CC)C(=O)N(C)[C@H](C(=O)N3CCCC3)CC(=O)N(C)[C@@H](C)C(=O)N[C@@H]([C@@H](C)CC)C(=O)N(C)CC(=O)N(C)[C@H]3C/C=C\CCN(C3=O)[C@@H](Cc3ccc(C)cc3)C(=O)N(C)CC(=O)N[C@@H](CCc3cc(F)c(C(F)(F)F)c(F)c3)C(=O)N2C1 [PP2145] | – | – | A (a compound having 10 or more and less than 20 is denoted as A) | A (a compound having 10 or more and less than 20 is denoted as A) | –
CC[C@H](C)[C@@H]1NC(=O)[C@H](C)N(C)C(=O)C[C@@H](C(=O)N2CCOCC2)N(C)C(=O)[C@H](C2CCCC2)N(C)C(=O)C2(CCCC2)NC(=O)[C@@H]2CCCN2C(=O)[C@H](CCc2cc(F)c(C(F)(F)F)c(F)c2)NC(=O)CN(C)C(=O)[C@H](Cc2ccc(C(F)(F)F)cc2)N2CCCCC[C@@H](C2=O)N(C)C(=O)CN(C)C1=O [PP0487] | – | – | – | – | NRAS/KRAS (ratio of KD value with respect to GDP-bound NRAS wild-type protein to KD value with respect to KRAS) [1]: B (a compound having 3 or more and less than 10 is denoted as B); HRAS/KRAS (ratio of KD value with respect to GDP-bound HRAS wild-type protein to KD value with respect to KRAS) [2]: B (a compound having 3 or more and less than 10 is denoted as B)
CCCN1C(=O)[C@@H]2CCN2C(=O)[C@@H]2CCN2C(=O)[C@H]([C@@H](C)CC)NC(=O)[C@H](CC(C)C)N(C)C(=O)C[C@@H](C(=O)N2CCOCC2)N(C)C(=O)[C@H](C2CCCC2)N(C)C(=O)C2(CCCC2)NC(=O)[C@@H]2CCCN2C(=O)[C@H](CCc2ccc(C(F)(F)F)c(Cl)c2)NC(=O)CN(C)C(=O)[C@@H]1Cc1ccc(C(F)(F)F)cc1 [PP0168] ([NMeL]I[Aze][Aze][NPrPhe(4-CF3)][Sar][hPhe(3-Cl-4-CF3)]P[Ac5c][NMeGly(cPent)][NMeD]-Morpholide; lactam N-11) | C (A compound having a KD ratio of 0.1 or more and less than 3 is denoted as C) | B (a compound having 3 or more and less than 10 is denoted as B) | – | – | –
CC[C@H](C)[C@@H]1NC(=O)[C@H](CC(C)C)N(C)C(=O)C[C@@H](C(=O)N(C)C)N(C)C(=O)[C@H](C2CCCC2)N(C)C(=O)C2(CC(C)(C)C2)NC(=O)[C@@H]2C[C@H](C)CN2C(=O)[C@H](CCc2ccc(C(F)(F)F)c(OC)c2)NC(=O)CN(C)C(=O)[C@H](Cc2ccc(C)cc2)N2CC/C=C\C[C@@H](C2=O)N(C)C(=O)[C@@H]2CCCN2C1=O [PP2409] | – | – | A (a compound having 10 or more and less than 20 is denoted as A) | B (a compound having 3 or more and less than 10 is denoted as B) | –
CC[C@H](C)[C@@H]1NC(=O)[C@H](C)N(C)C(=O)C[C@@H](C(=O)N2CCOCC2)N(C)C(=O)[C@H](C2CCCC2)N(C)C(=O)C2(CCCC2)NC(=O)[C@@H]2CCCN2C(=O)[C@H](CCc2ccc(C(F)(F)F)c(Cl)c2)NC(=O)CN(C)C(=O)[C@H](Cc2ccc(C)cc2)N(CC)C(=O)[C@@H]2CCN2C(=O)[C@H](C)N(C)C1=O [PP0007] ([NMeA]I[NMeA][Aze][NEtPhe(4-Me)][Sar][hPhe(3-Cl-4-CF3)]P[Ac5c][NMeGly(cPent)][NMeD]-Morpholide; lactam N-11) | C (A compound having a KD ratio of 0.1 or more and less than 3 is denoted as C) | C (A compound having a KD ratio of 0.1 or more and less than 3 is denoted as C) | – | – | –
CCCN1C(=O)[C@@H]2CCN2C(=O)[C@H](C)N(C)C(=O)[C@H]([C@@H](C)CC)NC(=O)[C@H](CC(C)C)N(C)C(=O)C[C@@H](C(=O)N2CCOCC2)N(C)C(=O)[C@H](C2CCCC2)N(C)C(=O)C2(CCCC2)NC(=O)[C@@H]2CC(F)(F)CN2C(=O)[C@H](CCc2ccc(C(F)(F)F)c(Cl)c2)NC(=O)CN(C)C(=O)[C@@H]1Cc1ccc(C(F)(F)F)cc1 [PP0196] ([NMeL]I[NMeA][Aze][NPrPhe(4-CF3)][Sar][hPhe(3-Cl-4-CF3)][Pro(4,4-F2)][Ac5c][NMeGly(cPent)][NMeD]-Morpholide; lactam N-11) | C (A compound having a KD ratio of 0.1 or more and less than 3 is denoted as C) | C (A compound having a KD ratio of 0.1 or more and less than 3 is denoted as C) | – | – | –
CCC[C@H]1C(=O)N[C@@H]([C@@H](C)CC)C(=O)N2CCC[C@H]2C(=O)N(C)[C@H]2C/C=C\CCN(C2=O)[C@@H](Cc2ccc(C(F)(F)F)cc2)C(=O)N(C)CC(=O)N[C@@H](CCc2ccc(C(F)(F)F)c(OC)c2)C(=O)N2C[C@H](OCC)C[C@H]2C(=O)N(C)C2(CCC2)C(=O)N(C)[C@@H](C2CCCC2)C(=O)N(C)[C@H](C(=O)N(C)C)CC(=O)N1C [PP2320, (1S,4S,10S,13S,17S,20S,26S,28R,32S,38S,42Z)-20-cyclopentyl-28-ethoxy-32-[2-[3-methoxy-4-(trifluoromethyl)phenyl]ethyl]-N,N,2,14,18,21,24,36-octamethyl-10-[(1S)-1-methylpropyl]-3,9,12,15,19,22,25,31,34,37,45-undecaoxo-13-propyl-38-[[4-(trifluoromethyl)phenyl]methyl]spiro[2,8,11,14,18,21,24,30,33,36,39-undecazatetracyclo[37.5.1.0^4,8.0^26,30]pentatetracont-42-ene-23,1′-cyclobutane]-17-carboxamide] | – | – | A (a compound having 10 or more and less than 20 is denoted as A) | A (a compound having 10 or more and less than 20 is denoted as A) | –
CCC[C@H]1C(=O)N[C@@H](CC(C)C)C(=O)N(CCOC)CC(=O)N(C)[C@H]2C/C=C\CCN(C2=O)[C@@H](Cc2ccc(C)cc2)C(=O)N(C)CC(=O)N[C@@H](CCc2cc(F)c(C(F)(F)F)c(F)c2)C(=O)N2C[C@H](OCC)C[C@H]2C(=O)NC2(CC(C)(C)C2)C(=O)N(C)[C@@H](C2CCCC2)C(=O)N(C)[C@H](C(=O)N(C)C)CC(=O)N1C [PP2520] | – | – | A (a compound having 10 or more and less than 20 is denoted as A) | A (a compound having 10 or more and less than 20 is denoted as A) | –
CCCOC[C@H]1C(=O)N[C@@H]([C@@H](C)CC)C(=O)N2CCC[C@H]2C(=O)N(C)[C@H]2C/C=C\CCN(C2=O)[C@@H](Cc2ccc(C)cc2)C(=O)N(C)CC(=O)N[C@@H](CCc2ccc(C(F)(F)F)c(OC)c2)C(=O)N2C[C@@H](C)C[C@H]2C(=O)NC2(CC(C)(C)C2)C(=O)N(C)[C@@H](C2CCCC2)C(=O)N(C)[C@H](C(=O)N(C)CC)CC(=O)N1C [PP2429] | – | – | A (a compound having 10 or more and less than 20 is denoted as A) | B (a compound having 3 or more and less than 10 is denoted as B) | –
